Test results: patent US12391726B2, “Ursolic acid morpholine salt” (EMMYON, INC., priority 2017, dated 2025)
Where a name gives a salt, the structure may show the parent alone. Read-outs that look alike come from different tables or passages of the source. Marks after values point to notes of the source that are not given here.

How the values were obtained:
[1] = system: male C57BL/6 mice; assay: Direct comparison to molar-matched ursolic acid in obesity-induced glucose intolerance (high-fat chow, 7 weeks); format: in vivo; conditions: 6 h fast, 0.050% ursolic acid or 0.059% morpholine salt, P<0.01
Experimental: Weight-matched cohorts of 8-week old male C57BL/6 mice were randomized to receive ad libitum access to either high-fat chow supplemented with 0.050% ursolic acid, or high-fat chow supplemented with a molar-matched dose of ursolic acid-morpholine salt (0.059%). After mice had consumed the diets for 7 weeks, mice were fasted for 6 hours and then subjected to glucose tolerance testing. […] Data are means±SEM from 10 mice per cohort.

[2] = system: male C57BL/6 mice; assay: Comparative grip strength testing for ursolic acid and salts thereof (standard chow, 6 weeks); format: in vivo; conditions: for Grip Strength (% Change vs. Control): 6 weeks, mean ± SEM, 12 mice; for Potency and efficacy compared with native ursolic acid and other ursolic acid salts: conclusion from Table I grip strength data
Description: Weight-matched cohorts of 8-week old male C57BL/6 mice were randomized to receive ad libitum access to either standard chow (control) or standard chow supplemented with either 0.050% ursolic acid, 0.200% ursolic acid, or one of the indicated ursolic acid salts: ursolic acid-ethanolamine salt; ursolic acid-tris(hydroxymethyl)aminomethane salt, hereinafter referred to as ursolic acid-“tris” salt; ursolic acid-lysine salt; ursolic acid-diethanolamine salt; ursolic acid-morpholine salt; or ursolic acid-piperazine salt. The ursolic acid-diethanolamine salt and ursolic acid-morpholine salt were prepared as described above. Ursolic acid was commercially obtained, and was used as a starting material to make the other ursolic acid salts according to techniques analogous to those above and known in the art. The doses of ursolic acid salts were molar-matched to either 0.050% ursolic acid (i.e. 0.057% ursolic acid-ethanolamine salt, 0.063% ursolic acid-tris salt, 0.066% ursolic acid-lysine salt, 0.059% ursolic acid-morpholine salt, and 0.059% ursolic acid-piperazine salt) or to 0.048% ursolic acid (i.e. 0.060% ursolic acid-diethanolamine salt). After mice had consumed these diets for 6 weeks, in vivo grip strength was measured.

[3] = system: male C57BL/6 mice; conditions: high-fat chow, 8 weeks, 0.500% Ursolic Acid or 0.059% morpholine salt; for Skeletal Muscle Wt (mg/g Final Body Wt): total dissected muscle weight normalized to final body weight
Description: Weight-matched cohorts of 8-week old male C57BL/6 mice were randomized to receive ad libitum access to either high-fat chow (control), high-fat chow supplemented with 0.050% ursolic acid, or high-fat chow supplemented with a molar-matched dose of ursolic acid-morpholine salt (0.059%). Just prior to starting these diets, mice were weighed and subjected to body composition analysis by NMR. After mice had consumed the diets for 8 weeks, body weight and body composition were re-assessed, retroperitoneal and epididymal fat pads were dissected and weighed, and skeletal muscles (tibialis anterior, gastrocnemius, soleus, quadriceps and triceps) were dissected and weighed. In each mouse, the total dissected skeletal muscle weight (combined weight of bilateral tibialis anterior, gastrocnemius, soleus, quadriceps and triceps muscles) was normalized to the final body weight. Data are means±SEM from 10 mice per cohort.

[4] = system: C2C12 myotubes; assay: Total cellular protein in cultured C2C12 myotubes (in vitro model of skeletal muscle); format: cell-based; conditions: 48 hours, 10% FBS; for Total cellular protein (FIG. 6): normalized to vehicle-treated, dose-dependent
Experimental: A direct, side-by-side comparison of ursolic acid and ursolic acid-morpholine salt was performed in an in vitro model of skeletal muscle. C2C12 myoblasts were cultured and fully differentiated into post-mitotic skeletal myotubes, then incubated for 48 hours with 10% fetal bovine serum (FBS) plus the indicated concentrations of ursolic acid or ursolic acid-morpholine salt. Myotubes were then harvested for assessment of total cellular protein, which increases as myotubes undergo hypertrophy. (See Dyle et al., Systems-based discovery of tomatidine as a natural small molecule inhibitor of skeletal muscle atrophy, Journal of Biological Chemistry 289, (2014) 14913-14924.) Total protein in each sample was normalized to the amount of in vehicle-treated myotubes. […] Results are shown in FIG. 6, which is a graph depicting results from the direct, side-by-side comparison of ursolic acid and ursolic acid-morpholine salt in the cultured C2C12 myotubes in vitro model of skeletal muscle.

[5] = system: male C57BL/6 mice; assay: Ursolic acid-diethanolamine salt: body weight and composition testing (standard chow, 7 weeks); format: in vivo
Experimental: After mice had consumed these diets for 7 weeks, mice were weighed and body composition was assessed by NMR. Data are means±SEM from 15 mice per cohort. *P<0.05.

[6] = system: male C57BL/6 mice; conditions: 0.059% in standard chow, 7 weeks
Experimental: Weight-matched cohorts of 8-week old male C57BL/6 mice were randomized to receive ad libitum access to either standard chow (control) or standard chow supplemented with 0.059% ursolic acid-morpholine salt. After mice had consumed these diets for 7 weeks, in vivo, grip strength was measured, mice were weighed, body composition was assessed by NMR, and quadriceps muscles were dissected for histological analysis of skeletal muscle fiber cross-sectional diameter.

[7] = system: male C57BL/6 mice; conditions: 0.059% in high-fat chow, 8 weeks, 6 h fast; control 37,122±1,339; P<0.01
Experimental: Weight-matched cohorts of 8-week old male C57BL/6 mice were randomized to receive ad libitum access to either high-fat chow (control) or high-fat chow supplemented with 0.059% ursolic acid-morpholine salt. After mice had consumed the diets for 8 weeks, mice were fasted for 6 hours and then subjected to glucose tolerance testing. Results are shown in FIG. 3, which is a graph depicting glucose tolerance testing results. Data are means±SEM from 15 mice per cohort.

[8] = system: male C57BL/6 mice; conditions: retroperitoneal fat pads, 0.059% in standard chow, 7 weeks, vs control
Description: (§1) Weight-matched cohorts of 8-week old male C57BL/6 mice were randomized to receive ad libitum access to either standard chow (control) or standard chow supplemented with 0.059% ursolic acid-morpholine salt. After mice had consumed these diets for 7 weeks, retroperitoneal fat pads were dissected, fixed, cross-sectioned, stained with hematoxylin and eosin, and subjected to photomicrography. FIG. 2A is a photomicrograph of adipocytes from retroperitoneal fat pads from the control group. FIG. 2B is a photomicrograph of adipocytes from retroperitoneal fat pads from the ursolic acid-morpholine salt group.

[9] = system: diet-induced obese mice; assay: Obesity and blood glucose testing (high-fat chow, 9 weeks); format: in vivo; conditions: 0.059% in high-fat chow
Description: Weight-matched cohorts of 8-week old male C57BL/6 mice were randomized to receive ad libitum access to either high-fat chow (control) or high-fat chow supplemented with 0.059% ursolic acid-morpholine salt. Just prior to starting these diets, mice were weighed and subjected to body composition analysis by NMR. After mice had consumed the diets for 9 weeks, body weight and body composition were re-assessed, retroperitoneal and epididymal fat pads were dissected and weighed, and non-fasting blood glucose was measured.

[10] = system: male C57BL/6 mice; conditions: quadriceps, 0.059% in standard chow, 7 weeks, vs control
Description: as §1, with “quadriceps muscles” for “retroperitoneal fat pads”, “1A” for “2A”, “quadriceps skeletal muscle fibers” for “adipocytes from retroperitoneal fat pads”, “1B” for “2B”

[11] = system: male C57BL/6 mice; assay: Comparison with a maximally effective dose of ursolic acid (high-fat diet, 7 weeks, glucose tolerance test); format: in vivo; conditions: 0.059% morpholine salt vs 0.20% w/w ursolic acid
Experimental: After 7 weeks on the diets, mice were fasted for 6 hours and were then subjected to glucose tolerance tests.

[12] = standard chow supplemented, doses molar-matched to 0.050% ursolic acid (0.048% for diethanolamine salt): 0.050% ursolic acid, 0.057% ethanolamine, 0.063% tris, 0.066% lysine, 0.060% diethanolamine, 0.059% morpholine, 0.059% piperazine salt

SMILES: C[C@H]1[C@H](C)CC[C@]2(C(=O)O)CC[C@]3(C)C(=CC[C@@H]4[C@@]5(C)CC[C@H](O)C(C)(C)C5CC[C@]43C)[C@H]12 (stereo partly shown) [Ursolic Acid, Ursolic acid]
- Fasting blood glucose [1]: 166.3 ± 3.7 mg/dL
- Glucose tolerance test area under the curve (AUC) [1]: 40,585±1,357
- Grip Strength (% Change vs. Control) [2, 12]: 7.7 ± 1.9%
- Grip Strength (% Change vs. Control) ([2]; standard chow with 0.200% ursolic acid): 9.9 ± 2.2 %
- Epididymal Fat Pad Wt [3]: 2208.6 ± 52.0 ^a mg
- Final % Fat [3]: 39.8 ± 0.7 ^a %
- Final % Lean [3]: 50.4 ± 0.5 ^a %
- Final Body Wt [3]: 40.8 ± 0.5 ^a g
- Final Fat Mass [3]: 16.3 ± 0.3 ^a g
- Final Lean Mass [3]: 20.6 ± 0.3 ^a g
- Retroperitoneal Fat Pad Wt [3]: 986.1 ± 21.8 ^a mg
- Skeletal Muscle Wt (mg/g Final Body Wt) [3]: 25.5 ± 0.4 ^a mg/g Final Body Wt
- Total cellular protein (FIG. 6) [4]: significantly increased

SMILES: C[C@H]1[C@H](C)CC[C@]2(C(=O)O)CC[C@]3(C)C(=CCC4[C@@]5(C)CC[C@H](O)C(C)(C)C5CC[C@]43C)[C@H]12 (stereo partly shown) [Ursolic Acid-Diethanolamine Salt, ursolic acid diethanolamine salt]
- Final % Fat ([5]; 0.060% in standard chow): 16.6 ± 2.0%
- Final % Lean ([5]; 0.060% in standard chow): 64.2 ± 1.6%
- Final Body Wt ([5]; 0.060% in standard chow): 31.7 ± 0.5 g
- Final Fat Mass ([5]; 0.060% in standard chow): 5.3 ± 0.7 g
- Final Lean Mass ([5]; 0.060% in standard chow): 20.3 ± 0.4* g
- Final % Fat ([5]; 0.180% in standard chow): 14.1 ± 1.8* %
- Final % Lean ([5]; 0.180% in standard chow): 65.5 ± 1.4* %
- Final Body Wt ([5]; 0.180% in standard chow): 30.7 ± 0.5 g
- Final Fat Mass ([5]; 0.180% in standard chow): 4.4 ± 0.6* g
- Final Lean Mass ([5]; 0.180% in standard chow): 20.0 ± 0.3 g
- Lean mass and fat mass (conclusion) ([5]; conclusion from Table IV, standard chow): increased lean mass and decreased fat mass
- Potency and efficacy compared with native ursolic acid and other ursolic acid salts [2]: more potent and efficacious
- Grip Strength (% Change vs. Control) [2, 12]: 11.7 ± 2.5 %

SMILES: CC1CCC2(C(=O)O)CCC3(C)C(=CCC4C5(C)CCC(O)C(C)(C)C5CCC43C)C2C1C.NCCO (stereo not shown) [Ursolic Acid-Ethanolamine Salt, ursolic acid-ethanolamine salt]
- Grip Strength (% Change vs. Control) [2, 12]: 2.8 ± 1.6%

SMILES: CC1CCC2(C(=O)O)CCC3(C)C(=CCC4C5(C)CCC(O)C(C)(C)C5CCC43C)C2C1C.NCCCCC(N)C(=O)O (stereo not shown) [Ursolic Acid-Lysine Salt, ursolic acid-lysine salt]
- Grip Strength (% Change vs. Control) [2, 12]: 7.2 ± 2.3%

SMILES: C[C@H]1[C@H](C)CC[C@]2(C(=O)O)CC[C@]3(C)C(=CC[C@@H]4[C@@]5(C)CC[C@H](O)C(C)(C)[C@@H]5CC[C@]43C)[C@H]12 [Ursolic Acid-Morpholine Salt, ursolic acid morpholine salt]
- Fasting blood glucose [1]: 140.6 ± 7.8 mg/dL
- Glucose tolerance test area under the curve (AUC) [1]: 32,606±2,471
- Final Body Wt [6]: 34.6 ± 1.0 g
- Final Grip Strength [6]: 181.9 ± 2.4 g
- Final % Fat ([6]; NMR): 21.4 ± 2.9 %
- Final % Lean ([6]; NMR): 61.0 ± 2.2 %
- Final Fat Mass ([6]; NMR): 7.8 ± 1.2 g
- Final Lean Mass ([6]; NMR): 20.8 ± 0.3 g
- Skeletal muscle hypertrophy ([6]; conclusion from Table II): stimulated skeletal muscle hypertrophy
- Muscle fiber diameter ([6]; quadriceps, >4200 fibers per diet): 44.8 ± 0.2 μm
- Potency and efficacy compared with native ursolic acid and other ursolic acid salts [2]: more potent and efficacious
- Grip Strength (% Change vs. Control) [2, 12]: 11.3 ± 2.1 %
- Glucose tolerance test area under the curve (AUC) [7]: 31,383±1,869
- Adipocyte size (FIGS. 2A and 2B) [8]: decreased adipocyte size
- Epididymal Fat Pad Wt [9]: 1804.0 ± 161.5 mg
- Final % Fat [9]: 31.8 ± 3.1 %
- Final % Lean [9]: 55.3 ± 2.4 %
- Final Body Wt [9]: 38.9 ± 1.2 g
- Final Fat Mass [9]: 12.8 ± 1.4 g
- Final Lean Mass [9]: 21.3 ± 0.6 g
- Retroperitoneal Fat Pad Wt [9]: 731.8 ± 86.9 mg
- Obesity in diet-induced obese mice ([9]; conclusion from Table III): reduced obesity
- Blood Glucose ([9]; non-fasting): 177.7 ± 9.9 mg/dL
- Epididymal Fat Pad Wt [3]: 1713.8 ± 139.8 ^b mg
- Final % Fat [3]: 31.4 ± 2.8 ^b %
- Final % Lean [3]: 57.3 ± 2.1 ^b %
- Final Body Wt [3]: 36.6 ± 0.9 ^b g
- Final Fat Mass [3]: 11.6 ± 1.2 ^b g
- Final Lean Mass [3]: 20.9 ± 0.7 ^a g
- Retroperitoneal Fat Pad Wt [3]: 709.8 ± 72.2 ^b mg
- Skeletal Muscle Wt (mg/g Final Body Wt) [3]: 29.1 ± 1.0 ^b mg/g Final Body Wt
- Efficacy relative to ursolic acid (total cellular protein) [4]: 3 fold
- Potency relative to ursolic acid (total cellular protein) [4]: 3 fold
- Total cellular protein (FIG. 6) [4]: significantly increased
- Skeletal muscle fiber size (FIGS. 1A and 1B) [10]: increased skeletal muscle fiber size
- Glucose tolerance test AUC relative to ursolic acid (FIG. 5) ([11]; 7 weeks, 6 h fast, P<0.05): significantly lower
- Grip strength relative to ursolic acid ([11]; P=0.05): significantly improved

SMILES: C1CNCCN1.C[C@H]1[C@H](C)CC[C@]2(C(=O)O)CC[C@]3(C)C(=CC[C@@H]4[C@@]5(C)CC[C@H](O)C(C)(C)[C@@H]5CC[C@]43C)[C@H]12 [Ursolic Acid-Piperazine Salt, ursolic acid-piperazine salt]
- Grip Strength (% Change vs. Control) [2, 12]: 3.7 ± 2.5%

SMILES: CC1CCC2(C(=O)O)CCC3(C)C(=CCC4C5(C)CCC(O)C(C)(C)C5CCC43C)C2C1C.NC(CO)(CO)CO (stereo not shown) [Ursolic Acid-Tris Salt, ursolic acid-tris(hydroxymethyl)aminomethane salt]
- Grip Strength (% Change vs. Control) [2, 12]: 5.2 ± 1.6%
